The text below walks through data of patent US20190343801A1, “COMPOSITIONS AND METHODS FOR CONTROLLING NATURAL KILLER CELL ACTIVATION AND FUNCTION” (BAR ILAN UNIVERSITY, priority 2017, published 2019).

Where no end group is shown, it is not given here.

One assay relates to smooth muscle. Conditions: cited from earlier work.
The subject of assay [1] is myosin superfamily members from classes I, V, and X. To be noted: cited from earlier work.
A further assay has as its system SHP-1: β-actin complex. Nature of the assay: SHP-1 immunoprecipitation and anti-β-actin immunoblotting in YTS-2DL1 cells incubated with target cells. The format is cell-based. To be noted: inhibitory 221-Cw4 cells; 0.5 μM CytD. How it is done: YTS-2DL1 cells were incubated at 37° C. with 221-Cw4 or Cw7 cells for 5 min, 1 μM of JAS was added, and cells were incubated for 5 min. Cell lysates were subjected to IP of SHP-1 and IB with anti-β-actin or anti-SHP-1 antibodies. Shown data represent at least three independent experiments.
In FIG. 8D, YTS-2DL1 cells were incubated at 37° C. with 221-Cw4 or Cw7 cells for 5 min, 0.5 μM of CytD was added, and the cells were incubated for an additional 5 min. The cells were lysed, and IPs of SHP-1 were subjected to IB using anti-β-actin or anti-SHP-1. Results shown are representative of three independent experiments.
NK cells (primary or YTS) and ‘221’ target cells (either expressing HLA-Cw4, Cw7 or no HLA) were first incubated separately on ice for 10 min, at a ratio of 1:1. The cells were then mixed, centrifuged and kept on ice for 15 min. The cell mixture was then transferred to 37° C., for the indicated period of time, and subsequently lysed with ice-cold lysis buffer.
For analysis of whole cell lysates, 1-10×10^5 cells were used, and for IP experiments, 10-15×10^6 cells were used. Protein A/G plus-Agarose beads (Santa Cruz Biotechnology) were used for IP. […] Immunoreactive proteins were detected with either anti-mouse or anti-rabbit horseradish peroxidase-coupled secondary antibody followed by detection by enhanced chemiluminescence (PerkinElmer).
In general terms: In western blotting, separated proteins are transferred to a membrane and probed.

Assay [2] deals with F-actin retrograde flow in YTS and pNK F-tractin GFP cells. Nature of the assay: Live cell imaging and kymograph analysis of F-actin retrograde flow (ARF) in F-tractin GFP NK cells. The format is cell-based. Conditions: 0.5 μM CytD, anti-CD28 or anti-KIR2DL1. The source says: FIGS. […] In FIG. 5A, YTS F-tractin GFP cells were dropped over coverslips coated with anti-CD28 or anti-KIR1 antibodies, and imaged at 1 frame/sec through a single focal plane. […] Representative images are shown. Kymographs of F-actin dynamics were compiled along the contact site radius. […]
The y axis represents F-actin velocity (μm/sec), and the x axis—time from initial spreading (sec).
FIGS. 5E-5H. show analyses of NKIS area and ARF in the activating vs. inhibitory NKIS in the presence of Y-27632 (Y-27) inhibitor of myosin light chain (MLC) phosphorylation and/or JAS. […] NKIS area was determined using ImageJ. […]
Analyses of actin and SHP-1 dynamics were performed by preparing kymographs from live cell videos and tracing the movement of the fluorescently tagged proteins. […] Velocity over distance from the center was determined by calculating the velocity of the tracked protein based on the distance traversed to time between each two points on the trace, and noting the relative location from the center of the measured area. […] For each bin, average velocity and standard error were calculated. Average distance traversed over time was calculated by measuring the location of the trace, relative to its point of origin at each time point after the beginning of the trace. For each relative time point from the beginning of a trace, an average distance and standard error were calculated. […]

Assay [3] relates to SHP-1. Nature of the assay: PTP assay: SHP-1 catalytic activity (pNPP hydrolysis) after treatment of NK-target cell conjugates. Conditions: YTS-2DL1 + 221-Cw4, untreated 100%; 0.5 μM CytD. In kind it is cell-based. Here is the method:
YTS-2DL1 cells were pretreated with 25 μM Y-27 or left untreated. Cells were incubated at 37° C. with target cells for 5 min, 1 μM of JAS was added, and samples were incubated for 5 minutes before lysis. IP of SHP-1 was performed, and precipitates were incubated with pNpp. SHP-1 activity was determined by measuring absorbance at 405 nm. The graph represents rates of SHP-1 catalytic activity from three independent experiments.
In FIG. 8E, YTS-2DL1 cells were incubated at 37° C. with 221-Cw4 or Cw7 cells for 5 min, treated with 0.5 μM of CytD or left untreated, and SHP-1 activity was determined as detailed in the Materials and Methods. Graph summarizing percent of relative SHP-1 catalytic activity obtained by four independent experiments. Data are means±SEM.
SHP-1 catalytic activity was determined by measuring the hydrolysis of the exogenous substrate p-Nitrophenyl Phosphate (pNPP) by SHP-1, as previously described. NK cells (2-5×10^6) were incubated with target cells at ratio of 1:1, activated as described above, and lysed with passive ice-cold lysis buffer (1% Brij, 1% n-Octyl-b-D-glucoside, 50 mM Tris-HCl, pH 7.4, 150 mM NaCl, 5 mM ethylenediaminetetraacetic acid, and complete protease inhibitor tablets). Cell lysates were subjected to IP with anti-SHP-1 antibody. […] Reactions were terminated by adding 800 μl 1M NaOH, and SHP-1 activity was determined by measuring absorbance at 405 nm.

Assay [4] has as its target T1, SHP-1 (Homo sapiens, UniProt P29350).
T1 construct: expressed in transfected cells; host or cells: HEK 293T cells, unpurified lysate
Nature of the assay: MST analysis for the binding of YFP-SHP-1 and actin-derived peptides. Conditions: for binding to SHP-1: lysates of HEK 293T cells expressing YFP-SHP-1, peptides 400 μM-48 nM.
Text: Binding curves were generated by the NanoTemper analysis software (MO.Affinity Analysis v2.1.3). The graph summarizes the changes of the fluorescent thermophoresis signals as a function of peptide concentration from at least three independent experiments. Data are means±SD.
YFP-tagged SHP-1 was obtained from cell lysates of Human Embryonic Kidney (HEK) 293T cells, transiently transfected with YFP-SHP-1 by DNA-calcium phosphate co-precipitation, as previously described (Reicher B, et al (2012) Molecular and cellular biology 15: 3153-3163). MST measurements were performed using the protein purification-free method described by Khavrutskii et al. (Khavrutskii L, et al (2013) Journal of visualized experiments: JoVE). Briefly, each peptide (Synpeptide) was initially dissolved in Dimethylformamide (DMF), diluted in DDW (supplemented with 1 mM DTT) to reach stock concentration of 80004, and serially diluted (range from 400 μM to 48.8 nM) in HEPES buffer (50 mM, supplemented with 0.05% Tween-20 and 1 mM DTT) in 200 μL PCR-tubes. Then, YFP-SHP-1-containing cell lysate was added to the serially diluted tubes at a 1:1 ratio and the samples were gently mixed. The samples were allowed to incubate at room temperature for 30 min before being loaded into standard-treated Monolith™ capillaries (NanoTemper). After loading into the instrument (Monolith NT.115, NanoTemper), microthermophoresis was carried out using 40% LED power and 40% MST power. The changes of the fluorescent thermophoresis signals were plotted against the concentration of the serially diluted peptides. KD values were determined using the NanoTemper analysis software (MO.Affinity Analysis v2.1.3).
The SHP-1-β-actin complex formation was also examined using microscale thermophoresis (MST) technology. […] Lysates of HEK 293T cells transiently expressing YFP-SHP-1 were incubated with decreasing concentrations of the different peptides followed by MST analysis.

In assay [5] the target is CFP-actin (UniProt P60709). Nature of the assay: FRET between YFP-SHP-1 and CFP-actin in YTS cells at the activating NKIS (221-Cw7 target cells).
Assay [6] has as its target CFP-actin (UniProt P60709). Nature of the assay: FRET between YFP-SHP-1 and CFP-actin in YTS cells at the inhibitory NKIS (221-Cw4 target cells).
Assay [7] addresses YFP-SHP-1 (human SHP-1 wt tagged with YFP) (human) (UniProt P29350). Put plainly: MST, peptide titrated into lysate of HEK 293T cells expressing YFP-SHP-1.
Assay [8] has the same target. Nature of the assay: MST, lysate of 293T cells expressing YFP-SHP-1 with serially diluted peptide.

T1 sequence (P29350 whole entry): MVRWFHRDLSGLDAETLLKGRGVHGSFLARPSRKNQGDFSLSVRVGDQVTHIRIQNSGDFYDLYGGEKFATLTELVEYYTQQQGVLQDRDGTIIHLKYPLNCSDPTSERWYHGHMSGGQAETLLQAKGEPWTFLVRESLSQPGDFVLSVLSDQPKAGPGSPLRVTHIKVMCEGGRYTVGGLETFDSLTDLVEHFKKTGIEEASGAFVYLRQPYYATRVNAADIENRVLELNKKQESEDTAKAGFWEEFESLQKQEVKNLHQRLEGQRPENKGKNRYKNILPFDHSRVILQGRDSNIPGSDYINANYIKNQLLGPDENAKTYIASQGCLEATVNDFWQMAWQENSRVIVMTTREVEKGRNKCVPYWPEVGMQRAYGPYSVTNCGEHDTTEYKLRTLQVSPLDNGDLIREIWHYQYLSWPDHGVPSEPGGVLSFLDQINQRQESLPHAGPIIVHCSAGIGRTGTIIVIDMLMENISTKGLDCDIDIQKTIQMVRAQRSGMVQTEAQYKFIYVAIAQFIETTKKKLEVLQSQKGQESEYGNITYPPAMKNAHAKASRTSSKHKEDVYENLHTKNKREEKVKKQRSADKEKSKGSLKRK

As usually defined, the IC50 is the concentration that inhibits the measured activity by half. As to `Cc1ccc2c(c1)C(=O)C1(O)CCN(c3ccccc3)C1=N2` (stereo not drawn) [Blebbistatin], the IC50 in the assay on smooth muscle is 80 µM. The inhibition result in assay [1] was “does not inhibit”.

In the case of `C=C1[C@@H](C)[C@H]2C(Cc3ccccc3)NC(=O)[C@]23[C@H](OC(C)=O)/C=C/[C@@](C)(O)C(=O)[C@@H](C)C/C=C/[C@H]3[C@@H]1O` (stereo partly drawn) [CytD, Cytochalasin D], the “SHP-1 binding to β-actin” value in the assay with SHP-1: β-actin complex was “increased binding of SHP-1 to β-actin”. In addition, the “ARF velocity at the LP” value in assay [2] was “significant reduction in ARF velocity”. Further, the “relative SHP-1 catalytic activity” value in the assay on SHP-1 [3] is 55.4±8.4%.

In the case of EYQKASGVSG (irrelevant control peptide), the “binding to SHP-1” value in the assay with SHP-1 [4] is on record as “no binding was detected”.

On to “KEKLCFVALDF (mutant actin peptide) [Y-F mutant, single aa mutant form of the β-actin peptide, tyrosine to phenylalanine substitution]”, for which the “binding to SHP-1” value with SHP-1 [4] is listed as “no binding was detected”.

One may read the Kd as the equilibrium constant for the complex coming apart. Take “KEKLCYVALDF [WT actin peptide, KEKLCYVALDF]”: the Kd on SHP-1 [4] was 39.5 ± 6.2 µM.

“YFP-SHP-1 (human SHP-1 wt tagged with YFP) (from UniProt P29350 1-595) (enzyme)”: the results for the FRET efficiency in the assay with CFP-actin [5] and in the assay with CFP-actin [6] were 8.5% and 18.9%, respectively.

As a reminder, the EC50 (read off the curve) is the concentration that produces a half-maximal response. KEKLCYVALDF [WT β-actin derived peptide containing an ITIM motif (…)]: the dissociation constant Kd in [7] is 39.5 µM. Besides, in assay [8], the concentration for a half-maximal effect (EC50 (read off the curve)) was determined as 40 µM.
